{"source": "paper PMC12436592", "about": "(Nature Communications, 2025)", "target": "T1, hP2X7R (Homo sapiens, UniProt Q99572)", "T1 sequence (Q99572 1-595)": "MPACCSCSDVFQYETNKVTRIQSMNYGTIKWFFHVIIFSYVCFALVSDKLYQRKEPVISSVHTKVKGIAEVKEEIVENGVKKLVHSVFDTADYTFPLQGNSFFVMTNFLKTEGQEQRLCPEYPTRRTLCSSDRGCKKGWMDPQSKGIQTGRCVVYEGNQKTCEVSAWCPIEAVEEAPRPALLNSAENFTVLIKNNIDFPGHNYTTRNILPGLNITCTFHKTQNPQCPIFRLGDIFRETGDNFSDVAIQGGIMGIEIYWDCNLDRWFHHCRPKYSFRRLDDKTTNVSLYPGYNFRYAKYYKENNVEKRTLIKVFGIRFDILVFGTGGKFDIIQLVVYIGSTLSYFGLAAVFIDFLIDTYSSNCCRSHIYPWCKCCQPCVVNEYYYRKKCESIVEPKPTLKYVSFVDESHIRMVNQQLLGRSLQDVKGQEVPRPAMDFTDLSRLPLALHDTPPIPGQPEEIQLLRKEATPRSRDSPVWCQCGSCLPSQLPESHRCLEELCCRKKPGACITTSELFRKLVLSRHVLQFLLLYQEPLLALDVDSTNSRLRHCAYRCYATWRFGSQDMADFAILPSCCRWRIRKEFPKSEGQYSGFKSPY", "assay": "TEVC determination of antagonist binding kinetics in Xenopus oocytes", "type": "cell-based", "design": "expressed in transfected cells; host or cells: Xenopus laevis oocytes injected with capped cRNA (modified pUC19 vector, T7)", "conditions": "for IC50: Supplementary Fig. 10D, read-out: IC50 from binding equilibrium (plateau) dose inhibition curve; for off-rate of binding to the hP2X7R: graphically determined (y-intercept); for off-rate, Response [%]: single replicates", "method": "Xenopus laevis frogs were from Nasco International (Fort Atkinson, WI) and kept at the Core Facility Animal Models (CAM) of the Biomedical Center (BMC) of LMU Munich, Germany (Az:4.3.2–5682/LMU/BMC/CAM) in accordance with the EU Animal Welfare Act. Ovaries were surgically extracted (ROB_54-011-AZ 2532.Vet_02-23-166), treated with collagenase (Nordmark, Uetersen, Germany 1.0–1.5 mg/mL, ≥2 at RT) and defolliculated (15-min treatment in Ca^2+-free oocyte Ringer (90 mM NaCl, 1 mM KCl, 2 mM MgCl2, 5 mM HEPES), respectively. 50 nL of cRNA (0.5 µg/µL) were injected using a Nanoject II injector (Science Products, Drummond) and oocytes were kept in ND96 (96 mM NaCl, 2 mM KCl, 1 mM MgCl2, 1 mM CaCl2, 5 mM HEPES, pH 7.4–7.5). The plasmid containing the hP2X7R was linearized with NotI-HF (NEB) and purified with the MinElute Reaction Cleanup Kit (Qiagen, Hilden, Germany). Capped cRNA was synthesized using the mMESSAGE mMACHINE™ T7 Transcription Kit (ThermoFisher Scientific, Schwerte, Germany) and dissolved in nuclease-free water (500 ng/µL). Injected oocytes were allowed to express for at least 36 hours.\nTwo-electrode voltage clamp recordings were performed at room temperature and a holding potential of −70 mV using a Turbo Tec-05X Amplifier (npi electronic, Tamm, Germany), a magnetic valve system, and CellWorks E 5.5.1 software. Currents were filtered at 1 kHz and digitized at 200 Hz. Electrode resistances were below 1.2 MΩ. […] Recordings were performed in ND96.\nAfter obtaining reproducible agonist-evoked responses, solutions were switched to antagonist-containing recording solutions with and without ATP to determine association rates. Responses following antagonist application were normalized to the preceding, stabilized agonist responses. Dissociation was determined in 1- or 2 min intervals when currents were reduced to <10%. Association curves were fit to the data by the equation % Response = (100-Plateau)*exp(-kobs*Time) + Plateau, where Plateau indicates the response at equilibrium and kobs the experimentally determined on-rate. All data were analyzed using Prism software (GraphPad Software, Inc., Version 8.3.0, San Diego, CA) and are presented as means ± SD from at least three oocytes. […] The final concentration of DMSO in the recording solution was ≤1%.\nSupplementary Fig. 10: Kinetics of ligands binding to the hP2X7R measured by TEVC. (A) […]\nAll data represented as mean ± S.D. with n=3, 7, 7, and 7 f or the experiments performed at 3 nM, 10 nM, 30 nM, and 100 nM […]\n(B) Representative current traces for t he activation\n(C) On- and off-r at e constants and Ki\nObserved on- r at es kobs were determined by fitting the data (Fig. 4H, Supplementary Fig. 10A) to the function: % response = (100- Plateau)*exp(-kobs*time)+Plateau and plotted against the antagonist concentrations to obtain koff according to k obs=kon*F+koff. Assuming a (simplified) 1:1 binding model, of f-r at e constant koff and Ki values were estimated using the previous formulas as well as Ki=koff/kon. […]\ndetermined by Ca2+ imaging (18 nM, Fig. 3B ) and the binding equilibrium reached at each […]\nvalues of UB-MBX-46 c annot reflect an accurate value due to the nearly negligible dissociation on the timescale of the experiment. If k off was estimated based on the IC50 value (IC50 = koff/kon panel D), a more accurate koff value can be obtained. Numbers in square brackets are 95% Confidence Intervals. *values obtained from an extrapolated dose inhibition curve from D . (D) The plateau values, representing the binding equilibrium, were used to generate dose inhibition", "note": "Where “and” joins values, the source holds several entries; their conditions need not be identical. Equal values may be shown once."}
{"compound": "O=C(NNc1ccccc1Cl)C12CC3CC(CC(C3)C1)C2", "note": "[UB-ALT-P30, reference compound]", "values": [{"measurement": "Ki", "setting": "Ki=koff/kon, 1:1 binding model", "result": 28, "unit": "nM"}, {"measurement": "IC50", "setting": "TEVC", "result": 15, "unit": "nM"}, {"measurement": "off-rate of binding to the hP2X7R", "setting": "TEVC", "result": 0.29, "unit": "min⁻¹"}, {"measurement": "Response %, plateau (binding equilibrium)", "setting": "log [Antagonist] M -7", "result": "5.6% and 1.4% and 0% and 2.8%"}, {"measurement": "Response %, plateau (binding equilibrium)", "setting": "log [Antagonist] M -8", "result": "55.2% and 63.2% and 73.1%"}, {"measurement": "off-rate, Response [%]", "setting": "time 2 min", "result": "6.1% and 5.1% and 4% and 3.2% and 6.5%"}, {"measurement": "off-rate, Response [%]", "setting": "time 4 min", "result": "18.2% and 19.2% and 16% and 12.9% and 19.4%"}, {"measurement": "off-rate, Response [%]", "setting": "time 6 min", "result": "33.3% and 37.2% and 28% and 29% and 32.3%"}, {"measurement": "off-rate, Response [%]", "setting": "time 8 min", "result": "48.5% and 57.7% and 44% and 38.7% and 48.4%"}, {"measurement": "off-rate, Response [%]", "setting": "time 10 min", "result": "63.6% and 73.1% and 60% and 54.8% and 64.5%"}]}
{"compound": "CC12CC3CC1(C)C1(C)CC3(C(=O)NNc3ccccc3Cl)CC21C", "note": "[UB-MBX-46]", "values": [{"measurement": "Response [%], on-rate to hP2X7R", "setting": "3 nM, 8 min", "result": "81.7% and 82.6% and 84.4%"}, {"measurement": "Response [%], on-rate to hP2X7R", "setting": "3 nM, 10 min", "result": "79.7% and 80.2% and 82.1%"}, {"measurement": "Response [%], on-rate to hP2X7R", "setting": "3 nM, 12 min", "result": "77.1% and 77.3% and 80.4%"}, {"measurement": "Response [%], on-rate to hP2X7R", "setting": "3 nM, 14 min", "result": "75.7% and 75% and 78.9%"}, {"measurement": "Response [%], on-rate to hP2X7R", "setting": "3 nM, 16 min", "result": "74.3% and 73.3% and 77.9%"}, {"measurement": "Response [%], on-rate to hP2X7R", "setting": "3 nM, 18 min", "result": "72.4% and 72% and 76.9%"}, {"measurement": "Response [%], on-rate to hP2X7R", "setting": "3 nM, 20 min", "result": "71.3% and 75.5%"}, {"measurement": "Response [%], on-rate to hP2X7R", "setting": "3 nM, 22 min", "result": "71.1% and 69.9% and 74.3%"}, {"measurement": "Response [%], on-rate to hP2X7R", "setting": "3 nM, 24 min", "result": "70.1% and 68.7% and 73%"}, {"measurement": "Response [%], on-rate to hP2X7R", "setting": "3 nM, 26 min", "result": "68.4% and 67% and 71.9%"}, {"measurement": "Response [%], on-rate to hP2X7R", "setting": "3 nM, 28 min", "result": 67.5, "unit": "%"}, {"measurement": "Response [%], on-rate to hP2X7R", "setting": "10 nM, 8 min", "result": "46.2% and 42.1% and 45.9% and 43.2%"}, {"measurement": "Response [%], on-rate to hP2X7R", "setting": "10 nM, 10 min", "result": "38.5% and 32.7% and 36.4% and 35.2%"}, {"measurement": "Response [%], on-rate to hP2X7R", "setting": "10 nM, 12 min", "result": "32.3% and 28.4% and 29.5% and 27.9%"}, {"measurement": "Response [%], on-rate to hP2X7R", "setting": "10 nM, 14 min", "result": "27.8% and 23.8% and 23.7% and 22%"}, {"measurement": "Response [%], on-rate to hP2X7R", "setting": "10 nM, 16 min", "result": "24.1% and 19.5% and 19% and 18.8%"}, {"measurement": "Response [%], on-rate to hP2X7R", "setting": "10 nM, 18 min", "result": "21.6% and 17% and 14.3% and 15.8%"}, {"measurement": "Response [%], on-rate to hP2X7R", "setting": "10 nM, 20 min", "result": "17.8% and 14.3% and 12.1% and 13.7%"}, {"measurement": "Response [%], on-rate to hP2X7R", "setting": "10 nM, 22 min", "result": "14.9% and 12.5% and 10.6% and 11.9%"}, {"measurement": "Response [%], on-rate to hP2X7R", "setting": "10 nM, 24 min", "result": "12.6% and 11.2% and 8.8% and 10.6%"}, {"measurement": "Response [%], on-rate to hP2X7R", "setting": "10 nM, 26 min", "result": "11% and 9.8% and 7.8% and 9.3%"}, {"measurement": "Response [%], on-rate to hP2X7R", "setting": "30 nM, 10 min", "result": "13.8% and 4.3% and 7.1% and 7.5%"}, {"measurement": "Response [%], on-rate to hP2X7R", "setting": "30 nM, 12 min", "result": "8.8% and 2.5% and 5.3% and 5.2%"}, {"measurement": "Response [%], on-rate to hP2X7R", "setting": "30 nM, 14 min", "result": "6% and 1.6% and 3.8% and 3.4%"}, {"measurement": "Response [%], on-rate to hP2X7R", "setting": "30 nM, 16 min", "result": "4.7% and 0.9% and 2.8% and 2.9%"}, {"measurement": "Response [%], on-rate to hP2X7R", "setting": "30 nM, 18 min", "result": "3% and 0.6% and 2.3% and 2%"}, {"measurement": "Response [%], on-rate to hP2X7R", "setting": "30 nM, 20 min", "result": "1.7% and 0.4% and 2%"}, {"measurement": "Response [%], on-rate to hP2X7R", "setting": "30 nM, 22 min", "result": "1.2% and 0.4% and 1.8%"}, {"measurement": "Response [%], on-rate to hP2X7R", "setting": "100 nM, 8 min", "result": "0.4% and 0.9% and 0.6% and 1.9%"}, {"measurement": "antagonism of the hP2X7R", "setting": "TEVC, 300 µM ATP, 100 nM antagonist", "result": "strong antagonism"}, {"measurement": "IC50", "setting": "TEVC", "result": 3.8, "unit": "nM"}, {"measurement": "off-rate of binding to the hP2X7R", "setting": "TEVC", "result": 0.07, "unit": "min⁻¹"}, {"measurement": "Response %, plateau (binding equilibrium)", "setting": "log [Antagonist] M -7", "result": "0.2985% and 1.206% and 0.0001019% and 1.64%"}, {"measurement": "Response %, plateau (binding equilibrium)", "setting": "log [Antagonist] M -7.5", "result": "0.2898% and 1.031% and 2.642% and 2.211%"}, {"measurement": "Response %, plateau (binding equilibrium)", "setting": "log [Antagonist] M -8", "result": "7.079% and 5.855% and 4.45E-19% and 3.075%"}, {"measurement": "Response %, plateau (binding equilibrium)", "setting": "log [Antagonist] M -8.5", "result": "67.01% and 62.07% and 63.87%"}, {"measurement": "off-rate, Response [%]", "setting": "time 1 min", "result": "2.6% and 0.9% and 1.5%"}, {"measurement": "off-rate, Response [%]", "setting": "time 2 min", "result": "2.8% and 1.3% and 1.5%"}, {"measurement": "off-rate, Response [%]", "setting": "time 3 min", "result": "3.3% and 1.5% (2×)"}, {"measurement": "off-rate, Response [%]", "setting": "time 4 min", "result": "3.1% and 1.7% and 1.5%"}, {"measurement": "off-rate, Response [%]", "setting": "time 5 min", "result": "2.6% and 1.7% and 1.5%"}, {"measurement": "off-rate, Response [%]", "setting": "time 6 min", "result": "2.6% and 2% and 1.5%"}, {"measurement": "off-rate, Response [%]", "setting": "time 7 min", "result": "2.9% and 2.3% and 1.5%"}, {"measurement": "off-rate, Response [%]", "setting": "time 8 min", "result": "2.9% and 2.3% and 1.5%"}, {"measurement": "off-rate, Response [%]", "setting": "time 9 min", "result": "2.9% and 2.5% and 1.5%"}, {"measurement": "off-rate, Response [%]", "setting": "time 10 min", "result": "3.3% and 2.5% and 1.5%"}, {"measurement": "antagonist dissociation from the hP2X7R", "setting": "within 10 min of wash-out", "result": "virtually irreversible binding"}]}
